Test results as given in patent publication US11519922B2, “Methods for identifying risk of chemotherapy-induced cardiotoxicity and targeted medical intervention” (Detroit R&D, Inc., priority 2018, dated 2022).
“Also recorded” adds a separate entry of the source.

Experiments:
[1] = test system: H9c2 rat cardiomyocytes; test: MTT cell viability assay; format: cell-based; conditions: 1 μM DOX 2 hr, then fresh media 24 hr; compared to untreated control cells
Protocol: Cell viability was determined using the 3-[4,5-dimethylthiazol-2-yl]-2,5-diphenyltetrazolium bromide (MTT) assay (13) for cells incubated with and without 1 μM of DOX in media for 2 hr followed by fresh media for another 24 hours. The DOX treated cells maintained more than 90% cell viability compared to untreated control cells.
Rat H9c2 cell line was purchased from American Type Culture Collection (Manassas, Va.) and cultured on polystyrene culture plates in a humidified incubator at 37° C. in an atmosphere of 5% CO2 and 95% air. The H9c2 cells were grown in high glucose DMEM supplemented with 4.5 g/l glucose, 0.15% sodium bicarbonate, 0.11% sodium pyruvate, 10% fetal bovine serum, […], 100 IU/ml penicillin and 10 μg/ml streptomycin. When cells reached 80-90% confluency, media was replaced with media containing 1 μM DOX (Sigma) dissolved in DMSO. Cells were treated for 2 hr and collected immediately (0 hr) or washed and kept for 2, 6 and 24 hr in media without DOX.
The effect of DOX on cell viability was determined by 3-[4,5-dimethylthiazol-2-yl]-2,5-diphenyltetrazolium bromide (MTT) assay (13).

[2] = test system: H9c2 rat cardiomyocytes; test: Cell hypertrophy assay (cell surface area, ImageJ); format: cell-based; conditions: 1 μM DOX 2 hr
Protocol: Cells were treated for 2 hr with media containing 1 μM DOX, washed and kept for 2, 6 and 24 hr in media without DOX. Cell sizes (cell surface area) were measured using image J software. Results expressed as mean±SD (n=6-44);
Increased cell surface area (hypertrophy) was found at 6 hr and 24 hr after DOX treatment (p<0.05) whereas no changes were observed after 2 hr (˜100 cells measured/group) (FIG. 2).
For cell hypertrophy assay, rat H9c2 cells grown overnight in a plate containing a glass cover slip were fixed at 2, 6 and 24 hr after 2 hr 1 μM DOX treatment and stained with hematoxylin and eosin and images were taken using a using a Zeiss Axiovert microscope. ImageJ software was used to measure the surface area of the cells.

[3] = test system: H9c2 rat cardiomyocytes; test: BNP mRNA levels in cells by qRT-PCR; format: cell-based; conditions: 1 μM DOX 2 hr, normalized by β-actin mRNA
Protocol: FIGS. 1A and 1B show the effect of doxorubicin (DOX) on H9c2 rat cardiomyocytes. Cells were treated for 2 hr with media containing 1 μM DOX, washed and kept for 2, 6 and 24 hr in media without DOX. BNP mRNA levels in H9c2 cells were assessed by qRT-PCR (A) and cell media was collected and extracted with ethyl acetate for 14,15-DHET analyses using ELISA kit (Detroit R&D) (B). *p<0.05;
Normalized BNP levels were decreased 6 hr and 24 hr after 2 hr of DOX treatment (p<0.05) (FIG. 1A) when cardiomyocyte hypertrophy occurred ([…]).
BNP mRNA was assessed in rat H9c2 cells. […] Results were normalized using β-actin mRNA levels using a rat specific primer (13). Our results have shown that BNP levels were decreased 6 and 24 hr after 2 hr of DOX treatment (FIG. 1A) when cell hypertrophy was detected (FIG. 2).

[4] = test system: rat heart tissue; test: Histological analysis of heart tissue of DOX-treated rats; format: in vivo; conditions: DOX 3 mg/kg/week 2 weeks, 2-week recovery, 40× magnification
Protocol: Heart tissues were dehydrated, imbedded in paraffin and sliced. Slices were incubated in Mayer's hematoxylin reagent (ScyTek) for 5 min and covered with bluing reagent (ScyTek) for 15 seconds and eosin Y (ScyTek) solution for 3 minutes. Images of the rat cardiomyocyte were taken using a Zeiss Axiovert 200 microscope with RT Insight camera and SPOT Advanced Imaging software in 40× magnification at the Microscopy and Imaging Facility at Wayne State University.
Presence of vacuolization in heart tissue, a sign of cardiotoxicity (14), was not observed at 40× magnification.

[5] = Cardiotoxicity / LVEF in breast cancer patients after DOX treatment; format: in vivo, human
Source text: Chemotherapy-associated cardiotoxicity is defined as either a cardiomyopathy with a reduction of left ventricular ejection fraction (LVEF) ≥5% to <55% with symptoms of heart failure or an asymptomatic reduction of LVEF ≥10% to <55% by the Cardiac Review and Evaluation Committee (CREC) (7).

[6] = test system: plasma of breast cancer patients; test: Plasma troponin I (TnI) in breast cancer patients after DOX treatment; format: in vivo, human
[7] = test system: plasma of breast cancer patient; test: 14,15-DHET nanowell label-free analysis of patient plasma; format: in vivo, human; conditions: Patient #4, 10-fold diluted plasma, after vs before 3 months DOX, n=4
Protocol: The plasma samples of Patient #4 (10-fold diluted) who developed DOX-dependent cardiotoxicity 3 and 6 months after completion of the 3 months DOX treatment were obtained before and after 3 months DOX treatment (FIG. 4).
The bare gold surface of the 8-channel 90 nm or 200 nm nanowell electrode (Detroit R&D) was coated with a self-assembly monolayer (SAM) by incubating the electrode with 10 mM of 11-mercaptoundecanoic acid (MUA) (Sigma) for 1 hr at room temperature and activated using 50 mM EDC and 50 mM NHS. The 14,15-DHET IgG (Detroit R&D) (FIG. 6A) or TnI IgG (Detroit R&D) (FIG. 6B) in PBS (2.5 μg/ml) was added to the EDC/NHS-activated electrode. The IgG level to obtain optimal results was experimentally obtained by using electrodes coated with various concentrations of IgG ranging 1 to 10 μg/ml.

[8] = test system: rat heart tissue; test: Heart tissue mRNA biomarkers by RT-PCR in DOX-treated female rats; conditions: DOX 3 mg/kg/week 2 weeks, no recovery, normalized by β-actin mRNA
Protocol: Rats were euthanized at 48 hr (no recovery) or after 2 weeks (2 weeks recovery) following injection of the rats for 2 weeks with saline (control) or DOX (3 mg/kg/week). BNP mRNA levels in heart were assessed by qRT-PCR and results were normalized by β-actin mRNA (A). […] Results expressed as mean±SD (n=4-6). *p<0.05 and **p<0.01;
A study on serum biomarkers to detect risk of chemotherapy-induced cardiotoxicity was carried out using female rats treated with and without DOX (3 mg/kg/week, i.v. for 2 weeks) (no recovery group: Control and DOX, n=6/group) and with a 2-week recovery period (2 weeks recovery group: Control and DOX, n=6/group).
BNP mRNA levels in heart tissues were measured by reverse-transcription/real time PCR (Sybr green) and normalized using β-actin mRNA levels (13).
Heart total RNA was extracted using the TRIzol method, cDNA was synthesized using High Capacity cDNA Reverse Transcript Kit (Applied Biosystems). Levels of mRNA in cardiomyocytes were measured by real time PCR (Sybr green) using rat specific primers.

increase of BNP mRNA ([3]; 2 hr recovery): ~4 fold
plasma troponin I (TnI) levels ([6]; Patient #3, 3 months after 3 months of DOX treatment): increased
plasma troponin I (TnI) levels ([6]; Patient #4, 3 months after 3 months of DOX treatment): decreased
increase of plasma 14,15-DHET level (nanowell) [7]: ~20 fold
Heart tissue BNP mRNA [8]: No change
Heart tissue MPO mRNA [8]: No change
Heart tissue S100A9 mRNA [8]: No change
SMILES: COc1cccc2c1C(=O)c1c(O)c3c(c(O)c1C2=O)C[C@@](O)(C(=O)CO)C[C@@H]3O[C@H]1C[C@H](N)[C@H](O)[C@H](C)O1 [DOX, doxorubicin]
cell viability [1]: more than 90%
cell surface area (hypertrophy) ([2]; 2 hr recovery): no changes
cell surface area (hypertrophy) ([2]; 6 hr and 24 hr recovery): increased
BNP mRNA levels ([3]; 6 hr and 24 hr recovery): decreased; also recorded: lower than control
vacuolization / heart tissue damage (histology) [4]: no vacuolization or heart tissue damage; also recorded: not observed
cardiotoxicity detected ([5]; 5 breast cancer patients, at completion of 3 months of DOX treatment): no cardiotoxicity
reduction of LVEF ([5]; Patient #3, 3 months after 3 months of DOX treatment was completed): ~28%
reduction of LVEF ([5]; Patient #4, 3 months after 3 months of DOX treatment was completed): 22%
reduction of LVEF ([5]; Patients #3 and #4, 6 months after 3 months of DOX treatment was completed): around 20%
reduction of LVEF ([5]; Patients #3 and #4, at 3 and 6 months after DOX treatment was completed): higher than 20%
change of LVEF ([5]; the other patients (#1, #2, #5), at 3 and 6 months after DOX treatment): no significant changes
plasma troponin I (TnI) levels ([6]; Patients #1, #2 and #5 (no cardiotoxicity), 3 months after 3 months of DOX treatment): increased
